In patent US20260022142A1, “MACROCYCLIC IMMUNOMODULATORS” (Bristol-Myers Squibb Company, priority 2022, published 2026):
Bridge positions count the residues as written; N and C are the ends. Square brackets hold non-standard residues; d marks the D form. Peptide text beside a SMILES is read from it. * marks the point of attachment. ξ: configuration not given here. Phe(4-COOH) = N[C@@H](Cc1ccc(C(=O)O)cc1)C(=O)O; Bip = N[C@@H](Cc1ccc(-c2ccccc2)cc1)C(=O)O; Phe(3-Me) = Cc1cccc(C[C@H](N)C(=O)O)c1; Cha = N[C@@H](CC1CCCCC1)C(=O)O; Carboxymethyl = O=C(O)C*; Orn = NCCC[C@H](N)C(=O)O; Aun = NCCCCCCCCCCC(=O)O; Dab = NCC[C@H](N)C(=O)O; Dap = NC[C@H](N)C(=O)O; AEEA = NCCOCCOCC(=O)O; ξDab = NCCC(N)C(=O)O

Molecular target: T1, PD-1/PD-L1 interaction (PE-labeled human PD-L1-Ig binding to Jurkat cell line over-expressing human PD-1) (Homo sapiens, UniProt Q15116)
T1 construct: expressed in transfected cells; host or cells: Jurkat
Test: Jurkat-PD-1 Cell Binding High-Content Screening Assay (CBA)
Assay type: cell-based
Conditions: Jurkat cell line over-expressing human PD-1; PE-labeled PD-L1-Ig 20 nM final; read-out: Jurkat hPD1-PDL1 IC50
Procedure, shortened: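 Jurkat cells stably over-expressing human PD-1 were seeded in DMEM with 10% fetal calf serum and pre-incubated with compound for 2 h at 37° C. PE-labeled human PD-L1-Ig was then added at 20 nM final for 1 hour, after which cells were fixed with paraformaldehyde, Hoechst-stained and imaged by high-content microscopy.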

T1 sequence (Q15116 25-288): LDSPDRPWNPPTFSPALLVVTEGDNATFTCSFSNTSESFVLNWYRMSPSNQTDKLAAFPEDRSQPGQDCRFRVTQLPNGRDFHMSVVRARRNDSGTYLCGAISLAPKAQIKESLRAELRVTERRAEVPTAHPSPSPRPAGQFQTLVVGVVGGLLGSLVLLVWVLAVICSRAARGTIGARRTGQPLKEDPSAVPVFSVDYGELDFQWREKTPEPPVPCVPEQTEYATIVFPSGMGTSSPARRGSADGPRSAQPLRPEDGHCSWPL

IC50	SMILES
132 nM	CC(C)C[C@H]1NC(=O)[C@H](CCCN)NC(=O)[C@H](Cc2ccc(O)cc2)NC(=O)[C@H](Cc2ccc(-c3ccccc3)cc2)NC(=O)[C@H](Cc2ccc(O)cc2)NC(=O)[C@H](Cc2c[nH]c3ccccc23)NC(=O)[C@H](CC(=O)O)NC(=O)[C@H](Cc2ccc(OCC(=O)O)cc2)NC(=O)[C@H](Cc2ccc(OCC(=O)O)cc2)NC(=O)CSC[C@@H](C(=O)NC(CCN)C(=O)NCCCCCCCCCCC(=O)O)NC(=O)[C@H](CCCNC(=N)N)NC(=O)[C@H](Cc2ccc(O)cc2)NC(=O)[C@H](CC2CCCCC2)NC(=O)[C@H](CCN)NC1=O (stereo partly drawn) [Compound 2508] ({CH2CO}-Y(Carboxymethyl)Y(Carboxymethyl)DWY[Bip]Y[Orn][dL][Dab][Cha]YRC[ξDab][Aun]-OH; thioether N-14)
59.8 nM	CC(C)C[C@H]1NC(=O)[C@H](CCCN)NC(=O)[C@H](Cc2ccc(O)cc2)NC(=O)[C@H](Cc2ccc(-c3ccccc3)cc2)NC(=O)[C@H](Cc2ccc(O)cc2)NC(=O)[C@H](Cc2c[nH]c3ccccc23)NC(=O)[C@H](CC(=O)O)NC(=O)[C@H](Cc2ccc(OCC(=O)O)cc2)NC(=O)[C@H](CN)NC(=O)CSC[C@@H](C(=O)N[C@@H](CCN)C(=O)NCCCCCCCCCCC(=O)O)NC(=O)[C@H](CCCCN)NC(=O)[C@H](Cc2ccc(O)cc2)NC(=O)[C@H](CC2CCCCC2)NC(=O)[C@H](CCN)NC1=O [Compound 2509] ({CH2CO}-[Dap]Y(Carboxymethyl)DWY[Bip]Y[Orn][dL][Dab][Cha]YKC[Dab][Aun]-OH; thioether N-14)
65 nM	Cc1cccc(C[C@@H]2NC(=O)[C@H](CC(=O)O)NC(=O)[C@H](Cc3ccc(OCC(=O)O)cc3)NC(=O)[C@H](CN)NC(=O)CSC[C@@H](C(=O)N[C@@H](CCN)C(=O)NCCCCCCCCCCC(=O)O)NC(=O)[C@H](CN)NC(=O)[C@H](Cc3ccc(O)cc3)NC(=O)[C@H](CC3CCCCC3)NC(=O)[C@H](CCN)NC(=O)[C@@H](CC(C)C)NC(=O)[C@H](CCCN)NC(=O)[C@H](Cc3ccc(O)cc3)NC(=O)[C@H](Cc3ccc(-c4ccccc4)cc3)NC(=O)[C@H](Cc3ccc(O)cc3)NC2=O)c1 [Compound 2510] ({CH2CO}-[Dap]Y(Carboxymethyl)D[Phe(3-Me)]Y[Bip]Y[Orn][dL][Dab][Cha]Y[Dap]C[Dab][Aun]-OH; thioether N-14)
50.1 nM	Cc1cccc(C[C@@H]2NC(=O)[C@H](CC(=O)O)NC(=O)[C@H](Cc3ccc(OCC(=O)O)cc3)NC(=O)[C@H](CN)NC(=O)CSC[C@@H](C(=O)N[C@@H](CCN)C(=O)NCCCCCCCCCCC(=O)O)NC(=O)[C@H](CCCN)NC(=O)[C@H](Cc3ccc(O)cc3)NC(=O)[C@H](CC3CCCCC3)NC(=O)[C@H](CCN)NC(=O)[C@@H](CC(C)C)NC(=O)[C@H](CCCN)NC(=O)[C@H](Cc3ccc(O)cc3)NC(=O)[C@H](Cc3ccc(-c4ccccc4)cc3)NC(=O)[C@H](Cc3ccc(O)cc3)NC2=O)c1 [Compound 2511] ({CH2CO}-[Dap]Y(Carboxymethyl)D[Phe(3-Me)]Y[Bip]Y[Orn][dL][Dab][Cha]Y[Orn]C[Dab][Aun]-OH; thioether N-14)
33.4 nM	Cc1cccc(C[C@@H]2NC(=O)[C@H](CC(=O)O)NC(=O)[C@H](Cc3ccc(OCC(=O)O)cc3)NC(=O)[C@H](CN)NC(=O)CSC[C@@H](C(=O)N[C@@H](CCN)C(=O)NCCCCCCCCCCC(=O)O)NC(=O)[C@H](CCCNC(=N)N)NC(=O)[C@H](Cc3ccc(O)cc3)NC(=O)[C@H](CC3CCCCC3)NC(=O)[C@H](CCN)NC(=O)[C@@H](CC(C)C)NC(=O)[C@H](CCCN)NC(=O)[C@H](Cc3ccc(O)cc3)NC(=O)[C@H](Cc3ccc(-c4ccccc4)cc3)NC(=O)[C@H](Cc3ccc(O)cc3)NC2=O)c1 [Compound 2512] ({CH2CO}-[Dap]Y(Carboxymethyl)D[Phe(3-Me)]Y[Bip]Y[Orn][dL][Dab][Cha]YRC[Dab][Aun]-OH; thioether N-14)

The next lines start with the compound.

SMILES	IC50
CC(C)C[C@H]1NC(=O)[C@H](CCCN)NC(=O)[C@H](Cc2ccc(O)cc2)NC(=O)[C@H](Cc2ccc(-c3ccccc3)cc2)NC(=O)[C@H](Cc2ccc(O)cc2)NC(=O)[C@H](Cc2c[nH]c3ccccc23)NC(=O)[C@H](CC(=O)O)NC(=O)[C@H](Cc2ccc(C(=O)O)cc2)NC(=O)[C@H](Cc2ccc(OCC(=O)O)cc2)NC(=O)CSC[C@@H](C(=O)N[C@@H](CCN)C(=O)NCCCCCCCCCCC(=O)O)NC(=O)[C@H](CCCCN)NC(=O)[C@H](Cc2ccc(O)cc2)NC(=O)[C@H](CC2CCCCC2)NC(=O)[C@H](CCN)NC1=O [Compound 2507] ({CH2CO}-Y(Carboxymethyl)[Phe(4-COOH)]DWY[Bip]Y[Orn][dL][Dab][Cha]YKC[Dab][Aun]-OH; thioether N-14)	72.1 nM
CC(C)C[C@H]1NC(=O)[C@H](CCCN)NC(=O)[C@H](Cc2ccc(O)cc2)NC(=O)[C@H](Cc2ccc(-c3ccccc3)cc2)NC(=O)[C@H](Cc2ccc(O)cc2)NC(=O)[C@H](Cc2c[nH]c3ccccc23)NC(=O)[C@H](CC(=O)O)NC(=O)[C@H](Cc2ccc(OCC(=O)O)cc2)NC(=O)[C@H](Cc2ccc(OCC(=O)O)cc2)NC(=O)CSC[C@@H](C(=O)N[C@@H](CCN)C(=O)NCCCCCCCCCCC(=O)O)NC(=O)[C@H](CCCN)NC(=O)[C@H](Cc2ccc(O)cc2)NC(=O)[C@H](CC2CCCCC2)NC(=O)[C@H](CCN)NC1=O [Compound 2513] ({CH2CO}-Y(Carboxymethyl)Y(Carboxymethyl)DWY[Bip]Y[Orn][dL][Dab][Cha]Y[Orn]C[Dab][Aun]-OH; thioether N-14)	81.3 nM
CC(C)C[C@H]1NC(=O)[C@H](CCCN)NC(=O)[C@H](Cc2ccc(O)cc2)NC(=O)[C@H](Cc2ccc(-c3ccccc3)cc2)NC(=O)[C@H](Cc2ccc(O)cc2)NC(=O)[C@H](Cc2c[nH]c3ccccc23)NC(=O)[C@H](CC(=O)O)NC(=O)[C@H](Cc2ccc(OCC(=O)O)cc2)NC(=O)[C@H](Cc2ccc(OCC(=O)O)cc2)NC(=O)CSC[C@@H](C(=O)N[C@@H](CCN)C(=O)NCCCCCCCCCCC(=O)O)NC(=O)[C@H](CN)NC(=O)[C@H](Cc2ccc(O)cc2)NC(=O)[C@H](CC2CCCCC2)NC(=O)[C@H](CCN)NC1=O [Compound 2514] ({CH2CO}-Y(Carboxymethyl)Y(Carboxymethyl)DWY[Bip]Y[Orn][dL][Dab][Cha]Y[Dap]C[Dab][Aun]-OH; thioether N-14)	49.7 nM
CC(C)C[C@H]1NC(=O)[C@H](CCCN)NC(=O)[C@H](Cc2ccc(O)cc2)NC(=O)[C@H](Cc2ccc(-c3ccccc3)cc2)NC(=O)[C@H](Cc2ccc(O)cc2)NC(=O)[C@H](Cc2c[nH]c3ccccc23)NC(=O)[C@H](CC(=O)O)NC(=O)[C@H](Cc2ccc(C(=O)O)cc2)NC(=O)[C@H](Cc2ccc(OCC(=O)O)cc2)NC(=O)CSC[C@@H](C(=O)NCCOCCOCC(=O)NCCCCCCCCCCC(=O)O)NC(=O)[C@H](CCCCN)NC(=O)[C@H](Cc2ccc(O)cc2)NC(=O)[C@H](CC2CCCCC2)NC(=O)[C@H](CCN)NC1=O [Compound 2515] ({CH2CO}-Y(Carboxymethyl)[Phe(4-COOH)]DWY[Bip]Y[Orn][dL][Dab][Cha]YKC[AEEA][Aun]-OH; thioether N-14)	40.4 nM
CC(C)C[C@H]1NC(=O)[C@H](CCCN)NC(=O)[C@H](Cc2ccc(O)cc2)NC(=O)[C@H](Cc2ccc(-c3ccccc3)cc2)NC(=O)[C@H](Cc2ccc(O)cc2)NC(=O)[C@H](Cc2c[nH]c3ccccc23)NC(=O)[C@H](CC(=O)O)NC(=O)[C@H](Cc2ccc(OCC(=O)O)cc2)NC(=O)[C@H](Cc2ccc(OCC(=O)O)cc2)NC(=O)CSC[C@@H](C(=O)NCCOCCOCC(=O)NCCCCCCCCCCC(=O)O)NC(=O)[C@H](CCCNC(=N)N)NC(=O)[C@H](Cc2ccc(O)cc2)NC(=O)[C@H](CC2CCCCC2)NC(=O)[C@H](CCN)NC1=O [Compound 2516] ({CH2CO}-Y(Carboxymethyl)Y(Carboxymethyl)DWY[Bip]Y[Orn][dL][Dab][Cha]YRC[AEEA][Aun]-OH; thioether N-14)	126 nM
